Experimental data: publication PMC11995724, “Antibiotic target discovery by integrated phenotypic and activity-based profiling of electrophilic fragments” (Cell chemical biology, 2025)
Structures can show the parent of a compound that is named as a salt.

Experiment: in vitro
Conditions: human, hek293t cells

Row | Structure (SMILES) | viability at 48 h, 25 µM
1 | CC(Cl)C(=O)N1CCC(c2cc3ccccc3[nH]2)C1 (centres unmarked) [7-O12, 2-chloro-1-[3-(1H-indol-2-yl)pyrrolidin-1-yl]propan-1-one] | 82.5%
2 | Cc1cc(C2(NC(=O)C(C)Cl)CCOCC2)on1 (centres unmarked) [7-O13, 2-chloro-N-[4-(3-methyl-1,2-oxazol-5-yl)oxan-4-yl]propanamide] | 95.5%
3 | Cc1noc(C)c1COC1CCN(C(=O)C(C)Cl)C1 (centres unmarked) [7-O14, 2-chloro-1-{3-[(3,5-dimethyl-1,2-oxazol-4-yl)methoxy]pyrrolidin-1-yl}propan-1-one] | 90.9%
4 | CC(Cl)C(=O)N1C2CCC1CC(c1ccnn1C)C2 (centres unmarked) [7-O15, 2-chloro-1-[3-(1-methyl-1H-pyrazol-5-yl)-8-azabicyclo[3.2.1]octan-8-yl]propan-1-one] | 88.6%
5 | CCC(C)C1CN(Cc2ccc(C)nc2)CCN1C(=O)C(C)Cl (centres unmarked) [7-O16, 1-[2-(butan-2-yl)-4-[(6-methylpyridin-3-yl)methyl]piperazin-1-yl]-2-chloropropan-1-one] | 74.9%
6 | CC(Cl)C(=O)NCc1nc2cccnc2n1C (centres unmarked) [7-O17, 2-chloro-N-({3-methyl-3H-imidazo[4,5-b]pyridin-2-yl}methyl)propanamide] | 103%
7 | CC(Cl)C(=O)NCc1cccc(N2C(=O)NC3(CCCC3)C2=O)c1 (centres unmarked) [7-O18, 2-chloro-N-[(3-{2,4-dioxo-1,3-diazaspiro[4.4]nonan-3-yl}phenyl)methyl]propanamide] | 103%
8 | Cc1cc(C)n(CCCNC(=O)C(C)Cl)n1 (centres unmarked) [7-O19, 2-chloro-N-[3-(3,5-dimethyl-1H-pyrazol-1-yl)propyl]propanamide] | 78.1%
9 | CC(Cl)C(=O)NCC1CC(=O)N(c2ccccc2)C1 (centres unmarked) [7-O20, 2-chloro-N-[(5-oxo-1-phenylpyrrolidin-3-yl)methyl]propanamide] | 85.1%
10 | Cc1nc2ccccc2n(CCCNC(=O)C(C)Cl)c1=O (centres unmarked) [7-O21, 2-chloro-N-[3-(3-methyl-2-oxo-1,2-dihydroquinoxalin-1-yl)propyl]propanamide] | 59.4%
11 | CC(Cl)C(=O)Nc1ccc(Cc2nnc3ncccn23)cc1 (centres unmarked) [7-O22, 2-chloro-N-[4-({[1,2,4]triazolo[4,3-a]pyrimidin-3-yl}methyl)phenyl]propanamide] | 74.1%
12 | Cc1ccsc1CN(C(=O)CCl)C(C)C [7-P03, 2-chloro-N-[(3-methylthiophen-2-yl)methyl]-N-(propan-2-yl)acetamide] | 0.159%
13 | O=C(CCl)NCCC1CCCC1(F)F (centres unmarked) [7-P04, 2-chloro-N-[2-(2,2-difluorocyclopentyl)ethyl]acetamide] | 1.08%
14 | CC(Cl)C(=O)NCc1nn(-c2ccccc2)c2c1CCC2 (centres unmarked) [7-P05, 2-chloro-N-({1-phenyl-1H,4H,5H,6H-cyclopenta[c]pyrazol-3-yl}methyl)propanamide] | 116%
15 | O=C(CCl)NC1CCN(C(=O)c2ccccc2)C1 (centres unmarked) [7-P06, N-(1-benzoylpyrrolidin-3-yl)-2-chloroacetamide] | 0.866%
16 | CC(Cl)C(=O)NC(C)C(=O)Nc1ccc(-n2cncn2)cc1 (centres unmarked) [7-P07, 2-chloro-N-(1-{[4-(1H-1,2,4-triazol-1-yl)phenyl]carbamoyl}ethyl)propanamide] | 98.6%
17 | O=C(CCl)NC1C=C(c2ccc(Cl)cc2)CCC1 (centres unmarked) [7-P08, 2-chloro-N-[3-(4-chlorophenyl)cyclohex-2-en-1-yl]acetamide] | 0.393%
18 | COc1ccc(Cl)c2c1CCCC2N(C)C(=O)C(C)Cl (centres unmarked) [7-P09, 2-chloro-N-(8-chloro-5-methoxy-1,2,3,4-tetrahydronaphthalen-1-yl)-N-methylpropanamide] | 86.7%
19 | CCn1nc(C)c(CNC(=O)CCl)c1C [7-P10, 2-chloro-N-[(1-ethyl-3,5-dimethyl-1H-pyrazol-4-yl)methyl]acetamide] | 30%
20 | CC(Cl)C(=O)NCCc1nc2cc(F)ccc2s1 (centres unmarked) [7-P11, 2-chloro-N-[2-(5-fluoro-1,3-benzothiazol-2-yl)ethyl]propanamide] | 89.1%
21 | Cc1ccc(F)c(S(=O)(=O)NCCNC(=O)CCl)c1 [7-P12, 2-chloro-N-[2-(2-fluoro-5-methylbenzenesulfonamido)ethyl]acetamide] | 1.05%
22 | Cc1nc(C)n(C2CCCN(C(=O)C(C)Cl)C2)n1 (centres unmarked) [7-P13, 2-chloro-1-[3-(3,5-dimethyl-1H-1,2,4-triazol-1-yl)piperidin-1-yl]propan-1-one] | 92.3%
23 | NC(=O)c1ccccc1N1CCC(NC(=O)CCl)CC1 [7-P14, 2-[4-(2-chloroacetamido)piperidin-1-yl]benzamide hydrochloride] | 0.53%
24 | CC(Cl)C(=O)NCC(=O)N(C)Cc1cccnc1 (centres unmarked) [7-P15, 2-chloro-N-({methyl[(pyridin-3-yl)methyl]carbamoyl}methyl)propanamide] | 91.3%
25 | O=C(CCl)N[C@H]1CCN(S(=O)(=O)c2ccccc2)C1 [7-P16, N-[(3S)-1-(benzenesulfonyl)pyrrolidin-3-yl]-2-chloroacetamide] | 0.479%

Row | Structure (SMILES) | viability at 48 h, 25 µM
26 | Cc1cc(C)n(CC2CCN(C(=O)C(C)Cl)CC2)n1 (centres unmarked) [7-P17, 2-chloro-1-{4-[(3,5-dimethyl-1H-pyrazol-1-yl)methyl]piperidin-1-yl}propan-1-one] | 79.8%
27 | CC(c1ccc(C(F)(F)F)cc1F)N(C)C(=O)CCl (centres unmarked) [7-P18, 2-chloro-N-{1-[2-fluoro-4-(trifluoromethyl)phenyl]ethyl}-N-methylacetamide] | 0.35%
28 | Cc1nn(CC(C)C)c(Cl)c1C1CCCN1C(=O)C(C)Cl (centres unmarked) [7-P19, 2-chloro-1-{2-[5-chloro-3-methyl-1-(2-methylpropyl)-1H-pyrazol-4-yl]pyrrolidin-1-yl}propan-1-one] | 78%
29 | O=C(CCl)NCC(F)(F)c1cc(-c2ccccc2)n[nH]1 [7-P20, 2-chloro-N-[2,2-difluoro-2-(3-phenyl-1H-pyrazol-5-yl)ethyl]acetamide] | 0.938%
30 | CN(CCc1ccccc1O)C(=O)CCl [7-P21, 2-chloro-N-[2-(2-hydroxyphenyl)ethyl]-N-methylacetamide] | -0.172%
31 | CC(Cl)C(=O)N1CCN(C(C)c2cccc(C#N)c2)CC1 (centres unmarked) [7-P22, 3-{1-[4-(2-chloropropanoyl)piperazin-1-yl]ethyl}benzonitrile] | 66.4%
32 | COc1ccc(C=C(C#N)C(=O)Nc2cccc(C(F)(F)F)c2)cc1 [8-A03, 2-cyano-3-(4-methoxyphenyl)-N-[3-(trifluoromethyl)phenyl]prop-2-enamide] | 72.2%
33 | N#CC(=Cc1cccs1)C(=O)Nc1ccc(C(=O)O)cc1 [8-A04, 4-[2-cyano-3-(thiophen-2-yl)prop-2-enamido]benzoic acid] | 71.7%
34 | COc1ccc(C=C(C#N)C(=O)Nc2ccccc2)cc1 [8-A05, 2-cyano-3-(4-methoxyphenyl)-N-phenylprop-2-enamide] | 76.8%
35 | Cc1ccc(C=C(C#N)C(=O)Nc2ccc(N3CCOCC3)cc2)s1 [8-A06, 2-cyano-3-(5-methylthiophen-2-yl)-N-[4-(morpholin-4-yl)phenyl]prop-2-enamide] | 76.2%
36 | CCOc1ccc(C=C(C#N)C(=O)Nc2cccc3ncccc23)cc1 [8-A07, 2-cyano-3-(4-ethoxyphenyl)-N-(quinolin-5-yl)prop-2-enamide] | 60.7%
37 | N#CC(=Cc1cnn(-c2ccc(Cl)cc2)c1)C(=O)NC1CCCCC1 [8-A08, 3-[1-(4-chlorophenyl)-1H-pyrazol-4-yl]-2-cyano-N-cyclohexylprop-2-enamide] | 60.6%
38 | N#CC(=Cc1ccc2c(c1)OCO2)C(=O)NCc1ccccc1 [8-A09, 3-(1,3-dioxaindan-5-yl)-N-benzyl-2-cyanoprop-2-enamide] | 85.6%
39 | Cc1cc(C)c(NC(=O)C(C#N)=Cc2cc(F)ccc2F)c(C)c1 [8-A10, 2-cyano-3-(2,5-difluorophenyl)-N-(2,4,6-trimethylphenyl)prop-2-enamide] | 2.85%
40 | Cc1cccc(C)c1NC(=O)C(C#N)=Cc1ccc(OC(F)F)cc1 [8-A11, 2-cyano-3-[4-(difluoromethoxy)phenyl]-N-(2,6-dimethylphenyl)prop-2-enamide] | 56.3%
41 | N#CC(=Cc1cc(F)ccc1F)C(=O)Nc1cc(Cl)ccc1Cl [8-A12, 2-cyano-N-(2,5-dichlorophenyl)-3-(2,5-difluorophenyl)prop-2-enamide] | 61%
42 | Cc1c(C=C(C#N)C(=O)Nc2ccccc2F)cc(C#N)n1C [8-A13, 2-cyano-3-(5-cyano-1,2-dimethyl-1H-pyrrol-3-yl)-N-(2-fluorophenyl)prop-2-enamide] | 83.9%
43 | COc1ccc(-c2n[nH]cc2C=C(C#N)C(=O)Nc2ccccc2)cc1 [8-A14, 2-cyano-3-[3-(4-methoxyphenyl)-1H-pyrazol-4-yl]-N-phenylprop-2-enamide] | 76.6%
44 | N#CC(=Cc1ccccc1)C(=O)Nc1ccccc1-c1ccccc1 [8-A15, N-{[1,1'-biphenyl]-2-yl}-2-cyano-3-phenylprop-2-enamide] | 90.1%
45 | Cc1ccccc1NC(=O)C(C#N)=Cc1cc(C)n(C2CC2)c1C [8-A16, 2-cyano-3-(1-cyclopropyl-2,5-dimethyl-1H-pyrrol-3-yl)-N-(2-methylphenyl)prop-2-enamide] | 47.1%
46 | COc1ccc(C=C(C#N)C(=O)Nc2c(C)cccc2C)cc1OC [8-A17, 2-cyano-3-(3,4-dimethoxyphenyl)-N-(2,6-dimethylphenyl)prop-2-enamide] | 82.9%
47 | COc1cc(C=C(C#N)C(=O)Nc2c(C)cc(C)cc2C)cc(OC)c1 [8-A18, 2-cyano-3-(3,5-dimethoxyphenyl)-N-(2,4,6-trimethylphenyl)prop-2-enamide] | 26.3%
48 | COc1cccc(NC(=O)C(C#N)=Cc2ccc([N+](=O)[O-])o2)c1 [8-A19, 2-cyano-N-(3-methoxyphenyl)-3-(5-nitrofuran-2-yl)prop-2-enamide] | 72.4%
49 | CCc1ccc(NC(=O)C(C#N)=Cc2cccn2C)cc1 [8-A20, 2-cyano-N-(4-ethylphenyl)-3-(1-methyl-1H-pyrrol-2-yl)prop-2-enamide] | 58.7%
50 | COc1cc(Cl)c(C)cc1NC(=O)C(C#N)=CC=Cc1ccccc1 [8-A21, N-(4-chloro-2-methoxy-5-methylphenyl)-2-cyano-5-phenylpenta-2,4-dienamide] | 82%
